19 molecules from patent publication US20170334899A1, “AMINO-SUBSTITUTED ISOTHIAZOLES” (Bayer Pharma Aktiengesellschaft, priority 2014, published 2017) can be followed below.

In one experiment the target is T1, CDK2/CycE (Homo sapiens, UniProt P24941).
T1 construct: GST; purchased ProQinase GmbH (Freiburg, Germany); host or cells: insect cells (Sf9)
Put plainly: CDK2/CycE kinase assay (TR-FRET). Type of experiment: biochemical. Particulars: avg, read-out: CDK2 avg (IC50 [mol/l]). The text has this:
CDK2/CycE -inhibitory activity of compounds of the present invention was quantified employing the CDK2/CycE TR-FRET assay as described in the following paragraphs.
Recombinant fusion proteins of GST and human CDK2 and of GST and human CycE, expressed in insect cells (Sf9) and purified by Glutathion-Sepharose affinity chromatography, were purchased from ProQinase GmbH (Freiburg, Germany). As substrate for the kinase reaction biotinylated peptide biotin-Ttds-YISPLKSPYKISEG (C-terminus in amid form) was used which can be purchased e.g. form the company JERINI peptide technologies (Berlin, Germany).
For the assay 50 nl of a 100fold concentrated solution of the test compound in DMSO was pipetted into a black low volume 384we11 microtiter plate (Greiner Bio-One, Frickenhausen, Germany), 2 μl of a solution of CDK2/CycE in aqueous assay buffer [50 mM Tris/HCl pH 8.0, 10 mM MgCl2, 1.0 mM dithiothreitol, 0.1 mM sodium ortho-vanadate, 0.01% (v/v) Nonidet-P40 (Sigma)] were added and the mixture was incubated for 15 min at 22° C. to allow pre-binding of the test compounds to the enzyme before the start of the kinase reaction. Then the kinase reaction was started by the addition of 3 μl of a solution of adenosine-tri-phosphate (ATP, 16.7 μM=>final conc. in the 5 μl assay volume is 10 μM) and substrate (1.25 μM=>final conc. in the 5 μl assay volume is 0.75 μM) in assay buffer and the resulting mixture was incubated for a reaction time of 25 min at 22° C. The concentration of CDK2/CycE was adjusted depending of the activity of the enzyme lot and was chosen appropriate to have the assay in the linear range, typical concentrations were in the range of 130 ng/ml. The reaction was stopped by the addition of 5 μl of a solution of TR-FRET detection reagents (0.2 μM streptavidine-XL665 [Cisbio Bioassays, Codolet, France] and 1 nM anti-RB(pSer807/pSer811)-antibody from BD Pharmingen [#558389] and 1.2 nM LANCE EU-W1024 labeled anti-mouse IgG antibody [Perkin-Elmer, product no. AD0077, as an alternative a Terbium-cryptate-labeled anti-mouse IgG antibody from Cisbio Bioassays can be used]) in an aqueous EDTA-solution (100 mM EDTA, 0.2% (w/v) bovine serum albumin in 100 mM HEPES/NaOH pH 7.0).
The resulting mixture was incubated 1 h at 22° C. to allow the formation of complex between the phosphorylated biotinylated peptide and the detection reagents. Subsequently the amount of phosphorylated substrate was evaluated by measurement of the resonance energy transfer from the Eu-chelate to the streptavidine-XL. Therefore, the fluorescence emissions at 620 nm and 665 nm after excitation at 350 nm was measured in a TR-FRET reader, e.g. a Rubystar (BMG Labtechnologies, Offenburg, Germany) or a Viewlux (Perkin-Elmer). The ratio of the emissions at 665 nm and at […] was taken as the measure for the amount of phosphorylated substrate. The data were normalised (enzyme reaction without inhibitor=0% inhibition, all other assay components but no enzyme=100% inhibition).

The subject of another experiment is HeLa. The experiment in a line: Proliferation assay (crystal violet), HeLa. Particulars: Homo sapiens, HeLa, 96 h, HeLa cells; 4 days incubation; crystal violet staining; read-out: IC50 inhibition of proliferation, HeLa. The format is cell-based. In short, it runs like this:
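Seed 1000–5000 cells/well, 10% FCS; 24 h later replace medium and add compound (0.001–10 μM, 0.5% DMSO); incubate 4 d; glutaraldehyde fix, 0.1% crystal violet pH 3.0, elute with 10% acetic acid; A595; 4-parameter IC50.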

The structures appear in SMILES notation.

On to `Cc1nsc(Nc2cnc(C(F)(F)F)cn2)c1C(=O)Nc1ccc(C(=O)NCCN2CCCC(F)(F)C2)cc1` [Example 153, N-(4-{[2-(3,3-difluoropiperidin-1-yl)ethyl]carbamoyl}phenyl)-3-methyl-5-{[5-(trifluoromethyl)pyrazin-2-yl]amino}-1,2-thiazole-4-carboxamide], for which the values for the IC50 at CDK2/CycE and in the experiment with HeLa were over 20 µM and 2.8 µM, respectively.
Regarding `Cc1nsc(Nc2cnc3ccccc3n2)c1C(=O)Nc1ccc(S(C)(=O)=O)cc1` [Example 115, 3-Methyl-N-[4-(methylsulfonyl)phenyl]-5-(quinoxalin-2-ylamino)-1,2-thiazole-4-carboxamide], the values for the IC50 at CDK2/CycE and in the experiment on HeLa were at least 20 µM and 4.4 µM, respectively.
As for `Cc1nsc(Nc2cnc(C(F)(F)F)cn2)c1C(=O)Nc1ccc(OC2CCN(CC(F)F)CC2)nc1` [Example 8, N-(6-{[1-(2,2-Difluoroethyl)piperidin-4-yl]oxy}pyridin-3-yl)-3-methyl-5-{[5-(trifluoromethyl)pyrazin-2-yl]amino}-1,2-thiazole-4-carboxamide], the IC50 at CDK2/CycE was at least 20 µM; in the experiment on HeLa, 0.28 µM.
With `Cc1nsc(Nc2cnc3ccccc3n2)c1C(=O)Nc1cccc(C(=O)NCC(=O)O)c1` [Example 99, N-[3-({[3-Methyl-5-(quinoxalin-2-ylamino)-1,2-thiazol-4-yl]carbonyl}amino)benzoy]-glycine], the IC50 at CDK2/CycE is at least 20 µM; in the experiment on HeLa it was 10 µM.
The matching figures for `Cc1nsc(Nc2cnc(C(F)(F)F)cn2)c1C(=O)Nc1ccc(O[C@H]2CCN(CCC(F)(F)F)C[C@H]2F)nc1` [Example 146, N-(6-{[(3R,4S)-3-fluoro-1-(3,3,3-trifluoropropyl)piperidin-4-yl]oxy}pyridin-3-yl)-3-methyl-5-{[5-(trifluoromethyl)pyrazin-2-yl]amino}-1,2-thiazole-4-carboxamide]: over 20 µM and 0.24 µM.
On to `Cc1nsc(Nc2cnc(C(F)(F)F)cn2)c1C(=O)Nc1ccc(OC[C@H]2CCN(CC(F)(F)F)C2)nc1` (racemic) [Example 133, 3-Methyl-N-(6-{[(SR)-1-(2,2,2-trifluoroethyl)pyrrolidin-3-yl]methoxy}pyridin-3-yl)-5-{[5-(trifluoromethyl)pyrazin-2-yl]amino}-1,2-thiazole-4-carboxamide], for which the IC50 was over 20 µM at CDK2/CycE and 0.42 µM in the experiment on HeLa.
Consider `Cc1nsc(Nc2cnc(C(F)(F)F)cn2)c1C(=O)Nc1ccc(C(=O)N2CCN(CC(F)F)CC2)cc1` [Example 154, N-(4-{[4-(2,2-difluoroethyl)piperazin-1-yl]carbonyl}phenyl)-3-methyl-5-{[5-(trifluoromethyl)pyrazin-2-yl]amino}-1,2-thiazole-4-carboxamide], for which the IC50 on CDK2/CycE is over 20 µM; in the experiment with HeLa, 2.5 µM.
Consider `Cc1nsc(Nc2cnc(C(F)(F)F)cn2)c1C(=O)Nc1ccc(C(=O)O)cc1` [Example 97, 4-{[(3-Methyl-5-{[5-(trifluoromethyl)pyrazin-2-yl]amino}-1,2-thiazol-4-yl)carbony]-amino}benzoic acid], for which the IC50 is at least 20 µM at CDK2/CycE and 10 µM with HeLa.
As for `Cc1nsc(Nc2cnc(C(F)(F)F)cn2)c1C(=O)Nc1ccc(OC2CCN(CCF)CC2)nc1` [Example 7, N-(6-{[1-(2-Fluoroethyl)piperidin-4-yl]oxy}pyridin-3-yl)-3-methyl-5-{[5-(trifluoromethyl)pyrazin-2-yl]amino}-1,2-thiazole-4-carboxamide], the IC50 was at least 20 µM at CDK2/CycE and 0.58 µM in the experiment with HeLa.
For the molecule `Cc1nsc(Nc2cnc(C(F)(F)F)cn2)c1C(=O)Nc1ccc(O[C@@H]2CCN(CC(F)F)C[C@@H]2F)nc1` [Example 137, N-(6-{[(3S,4R)-1-(2,2-difluoroethyl)-3-fluoropiperidin-4-yl]oxy}pyridin-3-yl)-3-methyl-5-{[5-(trifluoromethyl)pyrazin-2-yl]amino}-1,2-thiazole-4-carboxamide], the IC50 is over 20 µM on CDK2/CycE and 0.18 µM in the experiment on HeLa.
The matching figures for `Cc1nsc(Nc2cncc(C(F)(F)F)n2)c1C(=O)Nc1ccc(F)c(OC2CCN(C(=O)OC(C)(C)C)CC2)c1` [Example 168, tert-butyl 4-(2-fluoro-5-{[(3-methyl-5-{[6-(trifluoromethyl)pyrazin-2-yl]amino}-1,2-thiazol-4-yl)carbonyl]amino}phenoxy)piperidine-1-carboxylate]: over 20 µM and 0.91 µM.
`Cc1nsc(Nc2cnc(C(F)(F)F)cn2)c1C(=O)Nc1ccc(O[C@@H]2CCN(CC(F)(F)F)C[C@@H]2F)nc1` [Example 138, N-(6-{[(3S,4R)-3-fluoro-1-(2,2,2-trifluoroethyl)piperidin-4-yl]oxy}pyridin-3-yl)-3-methyl-5-{[5-(trifluoromethyl)pyrazin-2-yl]amino}-1,2-thiazole-4-carboxamide]: the IC50 on CDK2/CycE is over 20 µM; with HeLa it was 0.14 µM.
In the case of `Cc1nsc(Nc2cnc(C(F)(F)F)cn2)c1C(=O)Nc1ccc(OC[C@@H]2CCN(CC(F)(F)F)C2)nc1` [Example 128, 3-Methyl-N-(6-{[(3R)-1-(2,2,2-trifluoroethyl)pyrrolidin-3-yl]methoxy}pyridin-3-yl)-5-{[5-(trifluoromethyl)pyrazin-2-yl]amino}-1,2-thiazole-4-carboxamide], the values for the IC50 on CDK2/CycE and with HeLa were over 20 µM and 0.23 µM, respectively.
On the same counts, the results for `Cc1nsc(Nc2cnc(C(F)(F)F)cn2)c1C(=O)Nc1ccc(OCC2CCN(C(=O)OC(C)(C)C)C2)nc1` (centres unmarked) [Example 109, tert-Butyl 3-{[(5-{[(3-methyl-5-{[5-(trifluoromethyl)pyrazin-2-yl]amino}-1,2-thiazol-4-yl)carbonyl]amino}pyridin-2-yl)oxy]methyl}pyrrolidine-1-carboxylate] are at least 20 µM and 0.2 µM.
As to `Cc1nsc(Nc2ccc(C#N)cn2)c1C(=O)Nc1ccc(C(=O)OC(C)(C)C)cc1` [Example 98, tert-Butyl 4-[({5-[(5-cyanopyridin-2-yl)amino]-3-methyl-1,2-thiazol-4-yl}carbonyl)-amino]benzoate], the IC50 on CDK2/CycE is at least 20 µM; with HeLa, 0.69 µM.
For `Cc1nsc(Nc2cncc(C(F)(F)F)n2)c1C(=O)Nc1ccc(C(=O)NCCN2CCCC(F)C2)cc1` (centres unmarked) [Example 155, N-(4-{[2-(3-fluoropiperidin-1-yl)ethyl]carbamoyl}phenyl)-3-methyl-5-{[6-(trifluoromethyl)pyrazin-2-yl]amino}-1,2-thiazole-4-carboxamide], the IC50 worked out at 4.1 µM at CDK2/CycE and 9.9 µM in the experiment with HeLa.
For `COc1ccc(NC(=O)c2c(C)nsc2Nc2ccc(C#N)cn2)c(N2CCOCC2)n1` [Example 173, 5-[(5-cyanopyridin-2-yl)amino]-N-[6-methoxy-2-(morpholin-4-yl)pyridin-3-yl]-3-methyl-1,2-thiazole-4-carboxamide], the IC50 was over 20 µM at CDK2/CycE and over 10 µM in the experiment on HeLa.
With `Cc1nsc(Nc2cnc(C(F)(F)F)cn2)c1C(=O)Nc1ccc(C(=O)OC(C)(C)C)cc1` [Example 96, tert-Butyl 4-{[(3-methyl-5-{[5-(trifluoromethyl)pyrazin-2-yl]amino}-1,2-thiazol-4-yl)carbonyl]amino}benzoate], the IC50 on CDK2/CycE was at least 20 µM; with HeLa, 1.1 µM.
On the same counts, the results for `Cc1nsc(Nc2cnc(C(F)(F)F)cn2)c1C(=O)Nc1ccc(OC2CCNCC2)nc1` [Example 6, 3-Methyl-N-[6-(piperidin-4-yloxy)pyridin-3-yl]-5-{[5-(trifluoromethyl)pyrazin-2-yl]amino}-1,2-thiazole-4-carboxamide] are at least 20 µM and 10 µM.
